Experimental findings from PubChem BioAssay (NCI) are described below.

The structures appear in SMILES notation. Where “and” joins values, the source holds several entries; their conditions need not be identical. Equal entries are not always repeated.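 All cell lines were grown in 96-well plates and treated with compound for 48 hours. Here, GI50 denotes the concentration required for 50% inhibition of growth. TGI denotes the concentration required for complete inhibition of growth.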

The subject of one assay is MALME-3M melanoma. Briefly: growth of human tumour cells (NCI), 48 h.
Consider `CN1C(=O)C(C)(C)C2(SC(C)(C)C2(C)C)N(C)C1=S` (stereo unspecified), for which the TGI was above 100 µM.

The next assay relates to SF-295 CNS. Briefly: growth of human tumour cells (NCI), 48 h.
As to `CCOC(=O)[C@]1(OC(C)=O)C[C@H](OC(C)=O)[C@@H](C(F)COP(=O)(OCc2ccccc2)OCc2ccccc2)O1` (stereo partly specified), the GI50 was 47.9 µM and > 100 µM; the TGI was above 100 µM.
For `O=C(O)c1ccccc1[Se][Se]c1ccccc1C(=O)O`, the TGI was above 100 µM.
As to `CC[C@@]1(O)C[C@H](OC2CC(N(C)C)C(O)C(C)O2)c2c(O)c3c(c(O)c2[C@H]1OC1CC(N(C)C)C(O)C(C)O1)C(=O)c1cccc(O)c1C3=O` (stereo partly specified), the GI50 is below 0.01 µM.
The molecule `Cc1ccc(N=Nc2ccc(N(CCC#N)CCC#N)cc2C)c(Br)c1` displayed a TGI of 93.1 µM.
With `CC(C)CCC[C@@H](C)[C@H]1CC[C@H]2[C@@H]3CC=C4C[C@@H](C(C(=O)O)C(=O)O)CC[C@]4(C)[C@H]3CC[C@]12C`, the GI50 is 0.0643 µM and the TGI worked out at 0.153 µM.
`CC(C)C/C(CC(=O)CCC(=O)Nc1ccccc1[N+](=O)[O-])=N\NC(=O)c1cc2ccccc2cc1O` showed a TGI of 99.8 µM.
Still for that read-out and setting: in the case of `Nc1ccccc1SC(C[N+](=O)[O-])c1ccc2c(c1)OCO2` (stereo unspecified) it was 18.8 µM.
For `COC1=CC(c2ccc[nH]2)=N/C1=C\c1[nH]c(C)c(C(=O)OC(C)C)c1C`, the GI50 is 0.0264 µM and the TGI came to 0.123 µM.
The corresponding values for `CC/C=C\CCC/C=C1/C(=O)C=C[C@@H]1C/C=C\CCCC(=O)OC` are 3.1 µM and 8.75 µM.
Regarding `COC1=CC(=O)c2nc(-c3ccncc3)[nH]c2C1=O`, the GI50 was above 100 µM and the TGI is above 100 µM.
As for `Cn1cnc([N+](=O)[O-])c1Sc1nnc(-c2cccnc2)n1C`, the TGI was above 100 µM.
Regarding `NC(=O)c1cccc2cn(-c3ccc([C@@H]4CCCNC4)cc3)nc12`, the GI50 is 4.65 µM and the TGI came to 18.1 µM.
Consider `CCOc1ccc(NC(=O)C(=O)CC(=O)c2c[n+](=O)c3cc(C)c(C)cc3n2[O-])cc1`, for which the TGI was above 100 µM.
Turning to `CN1C(=O)C(C)(C)C2(SC(C)(C)C2(C)C)N(C)C1=S` (stereo unspecified), the TGI is above 100 µM.

For the next assay, the system named is SK-MEL-28 melanoma. As to the kind of experiment: growth of human tumour cells (NCI), 48 h.
As for `CCOC(=O)[C@]1(OC(C)=O)C[C@H](OC(C)=O)[C@@H](C(F)COP(=O)(OCc2ccccc2)OCc2ccccc2)O1` (stereo partly specified), the TGI is above 100 µM.
Same read-out and setting: in the case of `O=C(O)c1ccccc1[Se][Se]c1ccccc1C(=O)O` it was above 100 µM.
`CC[C@@]1(O)C[C@H](OC2CC(N(C)C)C(O)C(C)O2)c2c(O)c3c(c(O)c2[C@H]1OC1CC(N(C)C)C(O)C(C)O1)C(=O)c1cccc(O)c1C3=O` (stereo partly specified): the GI50 was below 0.01 µM; the TGI is 0.135 µM and 0.0405 µM.
Molecule `Cc1ccc(N=Nc2ccc(N(CCC#N)CCC#N)cc2C)c(Br)c1` showed a TGI above 100 µM.
As to `CC(C)CCC[C@@H](C)[C@H]1CC[C@H]2[C@@H]3CC=C4C[C@@H](C(C(=O)O)C(=O)O)CC[C@]4(C)[C@H]3CC[C@]12C`, the GI50 is 0.143 µM and the TGI amounted to 0.469 µM.
Molecule `CC(C)C/C(CC(=O)CCC(=O)Nc1ccccc1[N+](=O)[O-])=N\NC(=O)c1cc2ccccc2cc1O` displayed a TGI above 100 µM.
Regarding `Nc1ccccc1SC(C[N+](=O)[O-])c1ccc2c(c1)OCO2` (stereo unspecified), the TGI came to 11.3 µM.
On to `COC1=CC(c2ccc[nH]2)=N/C1=C\c1[nH]c(C)c(C(=O)OC(C)C)c1C`, for which the GI50 was 0.216 µM and the TGI was found to be 1.95 µM.
The matching figures for `CC/C=C\CCC/C=C1/C(=O)C=C[C@@H]1C/C=C\CCCC(=O)OC`: 3.25 µM and 10.3 µM.
For the molecule `COC1=CC(=O)c2nc(-c3ccncc3)[nH]c2C1=O`, the GI50 was above 100 µM and the TGI was above 100 µM.
On to `Cn1cnc([N+](=O)[O-])c1Sc1nnc(-c2cccnc2)n1C`, for which the TGI amounted to 35.6 µM.
For `NC(=O)c1cccc2cn(-c3ccc([C@@H]4CCCNC4)cc3)nc12`, the GI50 is 16.3 µM and the TGI stood at 30.7 µM.
As for `CCOc1ccc(NC(=O)C(=O)CC(=O)c2c[n+](=O)c3cc(C)c(C)cc3n2[O-])cc1`, the TGI is above 100 µM.
`CN1C(=O)C(C)(C)C2(SC(C)(C)C2(C)C)N(C)C1=S` (stereo unspecified) showed a TGI above 100 µM.

In a further assay the test system is SK-MEL-5 melanoma. As to the kind of experiment: growth of human tumour cells (NCI), 48 h.
The molecule `CCOC(=O)[C@]1(OC(C)=O)C[C@H](OC(C)=O)[C@@H](C(F)COP(=O)(OCc2ccccc2)OCc2ccccc2)O1` (stereo partly specified) gave a TGI above 100 µM.
For the molecule `O=C(O)c1ccccc1[Se][Se]c1ccccc1C(=O)O`, the TGI was above 100 µM.
As to `CC[C@@]1(O)C[C@H](OC2CC(N(C)C)C(O)C(C)O2)c2c(O)c3c(c(O)c2[C@H]1OC1CC(N(C)C)C(O)C(C)O1)C(=O)c1cccc(O)c1C3=O` (stereo partly specified), the GI50 is below 0.01 µM.
For `Cc1ccc(N=Nc2ccc(N(CCC#N)CCC#N)cc2C)c(Br)c1`, the TGI turned out to be 56.5 µM.
Take `CC(C)CCC[C@@H](C)[C@H]1CC[C@H]2[C@@H]3CC=C4C[C@@H](C(C(=O)O)C(=O)O)CC[C@]4(C)[C@H]3CC[C@]12C`: the GI50 is 0.113 µM and the TGI came to 0.266 µM.
Molecule `CC(C)C/C(CC(=O)CCC(=O)Nc1ccccc1[N+](=O)[O-])=N\NC(=O)c1cc2ccccc2cc1O` registered a TGI of 67.5 µM.
The molecule `Nc1ccccc1SC(C[N+](=O)[O-])c1ccc2c(c1)OCO2` (stereo unspecified) gave a TGI of 15.3 µM.
`COC1=CC(c2ccc[nH]2)=N/C1=C\c1[nH]c(C)c(C(=O)OC(C)C)c1C`: the GI50 is 0.0242 µM and the TGI came out at 0.0773 µM.
The matching figures for `CC/C=C\CCC/C=C1/C(=O)C=C[C@@H]1C/C=C\CCCC(=O)OC`: 1.88 µM and 3.5 µM.
The matching figures for `COC1=CC(=O)c2nc(-c3ccncc3)[nH]c2C1=O`: above 100 µM and above 100 µM.
As for `Cn1cnc([N+](=O)[O-])c1Sc1nnc(-c2cccnc2)n1C`, the TGI turned out to be 35.4 µM.
Consider `NC(=O)c1cccc2cn(-c3ccc([C@@H]4CCCNC4)cc3)nc12`, for which the GI50 is 13.8 µM and the TGI is 27 µM.
With `CCOc1ccc(NC(=O)C(=O)CC(=O)c2c[n+](=O)c3cc(C)c(C)cc3n2[O-])cc1`, the TGI is above 100 µM.

For a further assay, the system named is SW-620 colon. As to the kind of experiment: growth of human tumour cells (NCI), 48 h.
As for `CCOC(=O)[C@]1(OC(C)=O)C[C@H](OC(C)=O)[C@@H](C(F)COP(=O)(OCc2ccccc2)OCc2ccccc2)O1` (stereo partly specified), the GI50 is 20.2 µM and > 100 µM; the TGI was 42.8 µM and > 100 µM.
In turn, `O=C(O)c1ccccc1[Se][Se]c1ccccc1C(=O)O` returned a TGI above 100 µM.
As for `CC[C@@]1(O)C[C@H](OC2CC(N(C)C)C(O)C(C)O2)c2c(O)c3c(c(O)c2[C@H]1OC1CC(N(C)C)C(O)C(C)O1)C(=O)c1cccc(O)c1C3=O` (stereo partly specified), the GI50 is below 0.01 µM and the TGI came out at 0.0149 µM.
In turn, `Cc1ccc(N=Nc2ccc(N(CCC#N)CCC#N)cc2C)c(Br)c1` gave a TGI above 100 µM.
Consider `CC(C)CCC[C@@H](C)[C@H]1CC[C@H]2[C@@H]3CC=C4C[C@@H](C(C(=O)O)C(=O)O)CC[C@]4(C)[C@H]3CC[C@]12C`, for which the GI50 is 0.156 µM and the TGI was 1.25 µM.
The molecule `CC(C)C/C(CC(=O)CCC(=O)Nc1ccccc1[N+](=O)[O-])=N\NC(=O)c1cc2ccccc2cc1O` displayed a TGI above 100 µM.
`Nc1ccccc1SC(C[N+](=O)[O-])c1ccc2c(c1)OCO2` (stereo unspecified) yielded a TGI of 7.74 µM.
Consider `COC1=CC(c2ccc[nH]2)=N/C1=C\c1[nH]c(C)c(C(=O)OC(C)C)c1C`, for which the GI50 is 0.0336 µM and the TGI came out at 1.44 µM.
The corresponding values for `CC/C=C\CCC/C=C1/C(=O)C=C[C@@H]1C/C=C\CCCC(=O)OC` are 4.16 µM and 18.7 µM.
The corresponding values for `COC1=CC(=O)c2nc(-c3ccncc3)[nH]c2C1=O` are above 100 µM and above 100 µM.
With `Cn1cnc([N+](=O)[O-])c1Sc1nnc(-c2cccnc2)n1C`, the TGI was determined as 31.3 µM.
Turning to `NC(=O)c1cccc2cn(-c3ccc([C@@H]4CCCNC4)cc3)nc12`, the GI50 is 10.4 µM and the TGI came out at 51.3 µM.
`CCOc1ccc(NC(=O)C(=O)CC(=O)c2c[n+](=O)c3cc(C)c(C)cc3n2[O-])cc1` registered a TGI above 100 µM.
For the molecule `CN1C(=O)C(C)(C)C2(SC(C)(C)C2(C)C)N(C)C1=S` (stereo unspecified), the TGI was above 100 µM.

Another assay relates to UACC-62 melanoma. As to the kind of experiment: growth of human tumour cells (NCI), 48 h.
`CCOC(=O)[C@]1(OC(C)=O)C[C@H](OC(C)=O)[C@@H](C(F)COP(=O)(OCc2ccccc2)OCc2ccccc2)O1` (stereo partly specified): the GI50 is 16.9 µM and > 100 µM; the TGI is 33.8 µM and > 100 µM.
`O=C(O)c1ccccc1[Se][Se]c1ccccc1C(=O)O` displayed a TGI of 82.8 µM.
For `CC[C@@]1(O)C[C@H](OC2CC(N(C)C)C(O)C(C)O2)c2c(O)c3c(c(O)c2[C@H]1OC1CC(N(C)C)C(O)C(C)O1)C(=O)c1cccc(O)c1C3=O` (stereo partly specified), the GI50 was below 0.01 µM; the TGI is 0.0711 µM and < 0.01 µM.
In turn, `Cc1ccc(N=Nc2ccc(N(CCC#N)CCC#N)cc2C)c(Br)c1` showed a TGI above 100 µM.
For the molecule `CC(C)CCC[C@@H](C)[C@H]1CC[C@H]2[C@@H]3CC=C4C[C@@H](C(C(=O)O)C(=O)O)CC[C@]4(C)[C@H]3CC[C@]12C`, the GI50 is 0.0764 µM and the TGI came out at 0.187 µM.
For `CC(C)C/C(CC(=O)CCC(=O)Nc1ccccc1[N+](=O)[O-])=N\NC(=O)c1cc2ccccc2cc1O`, the TGI stood at 80.5 µM.
`Nc1ccccc1SC(C[N+](=O)[O-])c1ccc2c(c1)OCO2` (stereo unspecified) displayed a TGI of 25.9 µM.
As for `COC1=CC(c2ccc[nH]2)=N/C1=C\c1[nH]c(C)c(C(=O)OC(C)C)c1C`, the GI50 is 0.025 µM and the TGI worked out at 0.0578 µM.
The corresponding values for `CC/C=C\CCC/C=C1/C(=O)C=C[C@@H]1C/C=C\CCCC(=O)OC` are 2.57 µM and 6.49 µM.
The matching figures for `COC1=CC(=O)c2nc(-c3ccncc3)[nH]c2C1=O`: above 100 µM and above 100 µM.
Molecule `Cn1cnc([N+](=O)[O-])c1Sc1nnc(-c2cccnc2)n1C` came in with a TGI of 32.6 µM.
For `NC(=O)c1cccc2cn(-c3ccc([C@@H]4CCCNC4)cc3)nc12`, the GI50 is 13.6 µM and the TGI turned out to be 27 µM.
`CCOc1ccc(NC(=O)C(=O)CC(=O)c2c[n+](=O)c3cc(C)c(C)cc3n2[O-])cc1`: the TGI was above 100 µM.
On the same count and under the same terms, under `CN1C(=O)C(C)(C)C2(SC(C)(C)C2(C)C)N(C)C1=S` (stereo unspecified) stands above 100 µM.
